Measured values as given in patent publication US6432939B1, “17a-hydroxy-4-androstene-3-one and derivatives thereof” (priority 1999, dated 2002).

Legend:
Sertoli cells = assay: inhibin-B secretion by Sertoli cells (inhibin-B dimer assay, Serotec); assay type: cell-based, Wistar rats
Description: The in-vitro stimulating effect on inhibin-B generation was measured using inhibin-B dimer assays by Serotec, Oxford, UK. […] The difference between the released inhibin-B quantity with and without the test substance expresses the efficacy of the respective test substance.
The substances were tested for their stimulating effect on inhibin-B secretion in an in-vitro model using Sertoli cells originating from Wistar rats and cultivated for up to 4 days.
Wistar rats that were 18 days old were killed using CO2; their testicles were collected and mechanically chopped up using a surgical knife. The resulting cell pulp was enzymatically disintegrated with collagenase II, hyaluronidase, and DNase using the following method: The cell pulp was digested for 15 minutes at 37° C. in 20 ml of Dulbecco's Modified Essential Medium (DMEM) containing 20 mg of collagenase II; subsequently, it was sedimented for 7 minutes at room temperature. The supernatant was discarded. The remaining pellet was resuspended in DMEM, then sedimented again for 7 minutes. The next steps were a second decomposition for 30 minutes at 37° C. in 20 ml of DMEM containing 40 mg of collagenase II, 40 mg of hyaluronidase, and 0.1 mg of DNase, and a centrifugation step at 500 rpm. After washing in DMEM without additives and another centrifugation step, the pellet was a third time enzymatically disintegrated for 30 minutes at 37° C. in 20 ml of DMEM containing 40 mg of collagenase II, 40 mg of hyaluronidase and 0.1 mg of DNase, then centrifuged at 1,000 rpm. The pellet was then resuspended, washed once in DMEM without additives, and finally sublimated with 100 U/ml of penicillin, 100 μg/ml of streptomycin, 5 μg/ml of human transferrin, 2 μg/ml of insulin, 50 ng/ml of vitamin A (all from Sigma Co.), 200 ng/ml of vitamin E (Merck Co.), and 3 mg/ml of cytosine arabinoside (Sigma Co.) (DMEM-Z) and sowed in 24-well microtiter plates. After 48 hours, the cultivated cells were given hypotonic treatment using 20 mM of Tris-HCl (pH 7.4) to remove residual gametes, then the medium was changed into DMEM-Z.
1 ml of biological sample containing 10^6 Sertoli cells in 990 ml of DMEM-Z and test substances at a concentration range from 0.1 nM to 1 μM, each dissolved in 10 μl of absolute ethanol (1% w/v of the total batch) was incubated for 48 hours at 34° C. and 5% CO2. The culture supernatant was then decanted from the cells, frozen at −20° C. and kept until the inhibin-B level was determined.
0.1 ml of culture supernatant was mixed with 0.05 ml of SDS of the inhibin-B assay (Serotec, Oxford, UK) in 1.8 ml Eppendorf reaction vessels and heated for 3 minutes to 100° C. After the batch had cooled down, 0.1 ml of assay diluent and 0.05 ml of a 6% H2O2 solution were added, intermixed, then incubated for 30 minutes at room temperature.
80 ml of the above reaction mixture and 80 ml of the 7 inhibin-B standards for creating a calibration curve contained in the assay were pipetted into the wells of the microtiter plate contained in the assay and allowed to incubate at room temperature overnight. Finally the wells were washed 3 times with an inhibin washing buffer.
The content of the alkaline phosphatase-conjugated antibody against human inhibin-B contained in the assay was taken up in 6 ml of assay diluent, and 0.05 ml of this solution were pipetted into the wells and incubated for 3 hours at room temperature. […]

[1] = tested on: epididymal and prostatic 5α-reductase; details: Monsalve 1977; Starka 1989; cited from earlier work
FSH levels in the plasma = details: depending on its dose; Bicikova 1993; cited from earlier work

C[C@]12CC[C@H]3[C@@H](CCC4=CC(=O)CC[C@@]43C)[C@@H]1CC[C@H]2O [17α-hydroxy-4-androstene-3-one]
inhibin-B levels expressed from the culture supernatant as compared to the control tests (Sertoli cells; Sertoli cell culture, incubation time of 44 and 52 hours, FIG. 2 (EpiT 1 uM)): significantly increased | increase of inhibin-B levels: concentration range of particularly striking effect (Sertoli cells; epitestosterone concentrations in the range from 10 nM to 1 pM): particularly striking | inhibition of epididymal and prostatic 5α-reductase [1]: inhibits | effect on FSH levels in the plasma (FSH levels in the plasma): either an inhibiting or an increasing effect

C[C@]12CCC(=O)C[C@@H]1CC[C@@H]1[C@@H]2CC[C@]2(C)[C@@H](O)CC[C@@H]12 [dihydrotestosterone]
inhibin-B secretion after adding steroids from natural sources (Sertoli cells; Sertoli cell culture): not influenced

CC(=O)[C@H]1CC[C@H]2[C@@H]3CCC4=CC(=O)CC[C@]4(C)[C@H]3CC[C@]12C [progesterone]
inhibin-B secretion after adding steroids from natural sources (Sertoli cells; Sertoli cell culture): not influenced

C[C@]12CC[C@H]3[C@@H](CCC4=CC(=O)CC[C@@]43C)[C@@H]1CC[C@@H]2O [testosterone]
inhibin-B secretion after adding steroids from natural sources (Sertoli cells; Sertoli cell culture): not influenced
